According to patent publication US20040121004A1, “Dosage forms containing a PPI, NSAID, and buffer” (priority 2002, published 2004):

Assays:
[1] = PPI/NSAID drug substance compatibility (storage stability of mixtures); format: physicochemical
Procedure: Various NSAIDs were combined with lansoprazole with and without a buffer to determine the compatibility of the components. The various mixtures were placed at room temperature and 40° C. with 75% relative humidity. The samples were tested initially and after two weeks at the storage conditions above. The results are reported in Table 1 below as a percent of the theoretical amount of a given component.

[2] = Substance compatibility in granulations: potency by HPLC, initially and after storage; format: physicochemical; conditions: for Potency NSAID, 2 Weeks Extreme Conditions: 2 weeks at 40° C. with 75% to 85% relative humidity; for Potency NSAID, 4 Weeks Extreme Conditions: 4 weeks at 40° C. with 75% to 85% relative humidity; for Potency NSAID, 19 Days RT: 19 days at room temperature; for Potency NSAID, 33 Days RT: 33 days at room temperature
Procedure: In this example, granulations of a PPI and various NSAIDs were prepared to determine the compatibility of these substances with each other in a granulated form.
The potency (mg/g) of each drug substance in each granulation was determined by HPLC.
Granulations A, C, and D, as well as naproxen and piroxicam drug substances were weighed and separately placed in scintillation vials and stored at room temperature (RT) and at 40° C. with 75% to 85% relative humidity (“Extreme Conditions”). Granulations A, C, and D, as well as the naproxen and piroxicam, were tested for potency of the lansoprazole and NSAID after 19 and 33 days at the room temperature conditions and after two and four weeks under the Extreme Conditions.

Row | % of Theory, lansoprazole, Initial ([1]; initial, percent of theoretical amount of lansoprazole) | % of Theory, lansoprazole, 40° C. 75% humidity ([1]; two weeks at 40° C. with 75% relative humidity) | % of Theory, lansoprazole, Room Temp. ([1]; two weeks at room temperature) | Potency NSAID, 2 Weeks Extreme Conditions [2] | Potency NSAID, 4 Weeks Extreme Conditions [2] | Potency NSAID, 19 Days RT [2] | Potency NSAID, 33 Days RT [2] | SMILES
1 | 100.8/NA % | 99.1/NA % | 99.1/NA % |  |  |  |  | Cc1c(OCC(F)(F)F)ccnc1C[S+]([O-])c1nc2ccccc2[nH]1 (centres unmarked) [Lansoprazole, lansoprazole]
2 |  |  |  | NA/996.7 mg/g | NA/1000.9 mg/g | NA/997.2 mg/g | NA/998.2 mg/g | COc1ccc2cc([C@H](C)C(=O)O)ccc2c1 [Naproxen, naproxen]
3 |  |  |  | NA/942.2 mg/g | NA/1005.5 mg/g | NA/1027.1 mg/g | NA/998.5 mg/g | CN1C(C(=O)Nc2ccccn2)=C(O)c2ccccc2S1(=O)=O [Piroxicam, piroxicam]
